Measured values taken from patent publication USRE48461E1, “Modulation of androgen receptor expression” (Ionis Pharmaceuticals, Inc., priority 2012, dated 2021).

How the values were obtained:
Type in all cases: cell-based, human
C4-2B cells = test: C4-2B cell proliferation (complete or CSS+DHT medium; Example 30); details: 5 days; for Proliferation (% untreated control): C4-2B cells
Protocol: After a treatment period of 5 days in complete medium or CSS+1 nM DHT medium, the proliferative capacity of the cancer cells was measured with using CellTiter 96® AQueous One or CellTiter-Glo® Solution Cell Proliferation kit (Promega), following the manufacturer's instructions.

AR mRNA [1] = test: AR RNA expression in C4-2 cells (complete, CSS+DHT medium); details: 48 hrs; for Percent expression of AR: C4-2 cells, CSS + DHT medium
Protocol: (§1) Cells were plated at 1,000 cells per well. […] After an incubation period of 48 hrs, RNA levels of AR, PSA and TMPRSS2 were measured.
(§2) Cells were plated at 2,000 cells per well and cultured in CSS media with 1 nM DHT. […] After an incubation period of 48 hrs, RNA levels of AR, PSA and TMPRSS2 were measured.

AR mRNA [2] = test: Time-course AR mRNA expression in C4-2B cells (8, 24, 48 hours); details: for Percent expression of AR compared to the control group in 8 hours / Percent expression of AR compared to the control group in 48 hours / Percent expression of AR compared to the control group in 24 hours: C4-2B cells
Protocol: C4-2B cells were plated at 1,000 cells per well in complete medium. […] After a treatment period of 8 hours, 24 hours, and 48 hours, AR expression was measured with primer probe set hAR-LTS00943.

AR mRNA [3] = test: AR RNA expression in C4-2B cells (complete, CSS+DHT medium; Example 30); details: 48 hrs
Protocol: (§3) Cells were plated at 1,000 cells per well. […] ISIS 549148 was included as a negative control. […] After an incubation period of 48 hrs, RNA levels of AR, PSA and TMPRSS2 were measured.
(§4) Cells were plated at 2,000 cells per well and cultured in CSS media with 1 nM DHT. […] ISIS 549148 was included as a negative control. […] After an incubation period of 48 hrs, RNA levels of AR, PSA and TMPRSS2 were measured. In the absence of DHT, AR expression in C4-2 cells was 188%, PSA expression was 43% and TMPRSS2 expression was 27% compared to the untreated control.

PSA mRNA = test: PSA expression in C4-2B cells (Example 30); details: 48 hrs
Protocol: as §3, §4

TMPRSS2 mRNA [4] = test: Time-course TMPRSS2 expression in C4-2B cells
Protocol: C4-2B cells were plated at 1,000 cells per well in complete medium. […] ISIS 549148 was included as a negative control. […] After a treatment period of 8 hours, 24 hours, and 48 hours, AR expression was measured with primer probe set hAR-LTS00943. Results are presented in Tables 70-72 as percent expression of AR, relative to non-treated cells.
Expression analysis of prostate-specific antigen (PSA) and TMPRSS2 were also analyzed. Results are presented in Tables 73-75 as percent inhibition of PSA expression and Tables 76-78 as percent inhibition of TMPRSS2 expression, relative to non-treated cells.

TMPRSS2 mRNA [5] = test: TMPRSS2 expression in C4-2 cells; details: 48 hrs; for Percent inhibition of TMPRSS2 expression: C4-2 cells, CSS + DHT medium
Protocol: as §1, §2

22RV1 cells = test: 22RV1 apoptosis (Caspase-glo 3/7); details: 72 hours; for Apoptosis (% untreated control): 22RV1 cells
Protocol: After a treatment period of 72 hours in complete medium or CSS+DHT medium, apoptosis of the cancer cells was measured with Caspase-glo 3/7 assay kit (Promega). Results are presented in Tables 131 and 132 as percent apoptosis of the cells, relative to non-treated cells.

TGATTTAATGGTTGCA [ISIS 569236] (cEt/MOE gapmer chemistry, further chemistry not given here) [targets intron 1]
Proliferation (% untreated control) (C4-2B cells; CSS + DHT medium, 0.04 μM): 109 % untreated control
Proliferation (% untreated control) (C4-2B cells; CSS + DHT medium, 0.2 μM): 109 % untreated control
Proliferation (% untreated control) (C4-2B cells; CSS + DHT medium, 1 μM): 67 % untreated control
Proliferation (% untreated control) (C4-2B cells; CSS + DHT medium, 5.0 μM): 39 % untreated control
Proliferation (% untreated control) (C4-2B cells; complete medium, 0.04 μM): 98 % untreated control
Proliferation (% untreated control) (C4-2B cells; complete medium, 0.2 μM): 64 % untreated control
Proliferation (% untreated control) (C4-2B cells; complete medium, 1 μM): 55 % untreated control
Proliferation (% untreated control) (C4-2B cells; complete medium, 5.0 μM): 48 % untreated control
proliferation of C4-2B cells (C4-2B cells; complete medium or CSS+1 nM DHT): reduced proliferation of the cells in a dose dependent compared to the control
Percent expression of AR (AR mRNA [1]; 0.04 μM): 89%
Percent expression of AR (AR mRNA [1]; 0.2 μM): 82%
Percent expression of AR (AR mRNA [1]; 1 μM): 52%
Percent expression of AR (AR mRNA [1]; 5.0 μM): 23%
Percent expression of AR in C4-2 cells cultured in complete medium (AR mRNA [1]; 0.04 μM): 72%
Percent expression of AR in C4-2 cells cultured in complete medium (AR mRNA [1]; 0.2 μM): 27%
Percent expression of AR in C4-2 cells cultured in complete medium (AR mRNA [1]; 1 μM): 11%
Percent expression of AR in C4-2 cells cultured in complete medium (AR mRNA [1]; 5.0 μM): 9%
Percent expression of AR compared to the control group in 8 hours (AR mRNA [2]; 0.04 μM): 100%
Percent expression of AR compared to the control group in 48 hours (AR mRNA [2]; 0.04 μM): 80%
Percent expression of AR compared to the control group in 8 hours (AR mRNA [2]; 0.2 μM): 87%
Percent expression of AR compared to the control group in 24 hours (AR mRNA [2]; 0.2 μM): 35%
Percent expression of AR compared to the control group in 48 hours (AR mRNA [2]; 0.2 μM): 19%
Percent expression of AR compared to the control group in 8 hours (AR mRNA [2]; 1 μM): 84%
Percent expression of AR compared to the control group in 24 hours (AR mRNA [2]; 1 μM): 15%
Percent expression of AR compared to the control group in 48 hours (AR mRNA [2]; 1 μM): 7%
Percent expression of AR compared to the control group in 8 hours (AR mRNA [2]; 5.0 μM): 58%
Percent expression of AR compared to the control group in 24 hours (AR mRNA [2]; 5.0 μM): 5%
Percent expression of AR compared to the control group in 48 hours (AR mRNA [2]; 5.0 μM): 2%
AR expression (AR mRNA [2]; C4-2B cells, 8, 24 and 48 hours): reduced AR expression in the cells relative to the control set
Percent expression of AR (AR mRNA [3]; CSS + DHT medium, 0.04 μM): 67%
Percent expression of AR (AR mRNA [3]; CSS + DHT medium, 0.2 μM): 49%
Percent expression of AR (AR mRNA [3]; CSS + DHT medium, 1 μM): 24%
Percent expression of AR (AR mRNA [3]; CSS + DHT medium, 5.0 μM): 19%
Percent expression of AR (AR mRNA [3]; complete medium, 0.04 μM): 61%
Percent expression of AR (AR mRNA [3]; complete medium, 0.2 μM): 23%
Percent expression of AR (AR mRNA [3]; complete medium, 1 μM): 20%
Percent expression of AR (AR mRNA [3]; complete medium, 5.0 μM): 16%
Percent inhibition of PSA expression (PSA mRNA; CSS + DHT medium, 0.04 μM): 0%
Percent inhibition of PSA expression (PSA mRNA; CSS + DHT medium, 0.2 μM): 5%
Percent inhibition of PSA expression (PSA mRNA; CSS + DHT medium, 1 μM): 33%
Percent inhibition of PSA expression (PSA mRNA; CSS + DHT medium, 5.0 μM): 46%
Percent inhibition of PSA expression (PSA mRNA; complete medium, 0.04 μM): 30%
Percent inhibition of PSA expression (PSA mRNA; complete medium, 0.2 μM): 72%
Percent inhibition of PSA expression (PSA mRNA; complete medium, 1 μM): 81%
Percent inhibition of PSA expression (PSA mRNA; complete medium, 5.0 μM): 89%
Percent inhibition of TMPRSS2 expression compared to the control group in 8 hours (TMPRSS2 mRNA [4]; 0.04 μM): 0%
Percent inhibition of TMPRSS2 expression compared to the control group in 24 hours (TMPRSS2 mRNA [4]; 0.04 μM): 10%
Percent inhibition of TMPRSS2 expression compared to the control group in 48 hours (TMPRSS2 mRNA [4]; 0.04 μM): 22%
Percent inhibition of TMPRSS2 expression compared to the control group in 8 hours (TMPRSS2 mRNA [4]; 0.2 μM): 0%
Percent inhibition of TMPRSS2 expression compared to the control group in 24 hours (TMPRSS2 mRNA [4]; 0.2 μM): 32%
Percent inhibition of TMPRSS2 expression compared to the control group in 48 hours (TMPRSS2 mRNA [4]; 0.2 μM): 57%
Percent inhibition of TMPRSS2 expression compared to the control group in 8 hours (TMPRSS2 mRNA [4]; 1 μM): 0%
Percent inhibition of TMPRSS2 expression compared to the control group in 24 hours (TMPRSS2 mRNA [4]; 1 μM): 57%
Percent inhibition of TMPRSS2 expression compared to the control group in 48 hours (TMPRSS2 mRNA [4]; 1 μM): 70%
Percent inhibition of TMPRSS2 expression compared to the control group in 8 hours (TMPRSS2 mRNA [4]; 5.0 μM): 0%
Percent inhibition of TMPRSS2 expression compared to the control group in 24 hours (TMPRSS2 mRNA [4]; 5.0 μM): 66%
Percent inhibition of TMPRSS2 expression compared to the control group in 48 hours (TMPRSS2 mRNA [4]; 5.0 μM): 75%
TMPRSS2 expression (TMPRSS2 mRNA [4]; time course): reduced PSA and TMPRSS2 expression in the cells relative to the control set at the 24 hr and 48 hr time points
Percent inhibition of TMPRSS2 expression (TMPRSS2 mRNA [5]; 0.04 μM): 0%
Percent inhibition of TMPRSS2 expression (TMPRSS2 mRNA [5]; 0.2 μM): 11%
Percent inhibition of TMPRSS2 expression (TMPRSS2 mRNA [5]; 1 μM): 61%
Percent inhibition of TMPRSS2 expression (TMPRSS2 mRNA [5]; 5.0 μM): 67%
Percent inhibition of TMPRSS2 expression in C4-2 cells cultured in complete medium (TMPRSS2 mRNA [5]; 0.04 μM): 17%
Percent inhibition of TMPRSS2 expression in C4-2 cells cultured in complete medium (TMPRSS2 mRNA [5]; 0.2 μM): 54%
Percent inhibition of TMPRSS2 expression in C4-2 cells cultured in complete medium (TMPRSS2 mRNA [5]; 1 μM): 67%
Percent inhibition of TMPRSS2 expression in C4-2 cells cultured in complete medium (TMPRSS2 mRNA [5]; 5.0 μM): 67%
Apoptosis (% untreated control) (22RV1 cells; CSS + DHT medium, 1.34 nM): 127 % untreated control
Apoptosis (% untreated control) (22RV1 cells; CSS + DHT medium, 4.0 nM): 106 % untreated control
Apoptosis (% untreated control) (22RV1 cells; CSS + DHT medium, 13.4 nM): 257 % untreated control
Apoptosis (% untreated control) (22RV1 cells; CSS + DHT medium, 40 nM): 1136 % untreated control
Apoptosis (% untreated control) (22RV1 cells; complete medium, 1.34 nM): 91 % untreated control
Apoptosis (% untreated control) (22RV1 cells; complete medium, 4.0 nM): 141 % untreated control
Apoptosis (% untreated control) (22RV1 cells; complete medium, 13.4 nM): 333 % untreated control
Apoptosis (% untreated control) (22RV1 cells; complete medium, 40 nM): 1452 % untreated control
apoptosis of 22RV1 cells (22RV1 cells; complete or CSS+DHT medium): increased apoptosis of the cells in a dose dependent compared to the control
